Measurements: patent US8183285B2, “Therapeutic agent for irritable bowel syndrome and methods thereof” (Takeda Pharmaceutical Company Limited, priority 2006, dated 2012)

Tests used:
viscerosensory response = assay: Viscerosensory response test: abdominal oblique muscle contractions under colonic distension stimulus after 1% acetic acid instillation; assay type: in vivo; conditions: male SD rats, oral 0.3, 3 and 30 mg/kg, 30 minutes before second colonic distension stimulus; FIG. 1
Experimental: For the experiment, 7 to 8 week-old male SD rats (CREA Japan, Inc.) were used. Under ether anesthesia, the rats were sutured with a force transducer (F12-IS-SL, Star Medical Inc.) on the abdominal oblique muscle, and used for the experiment after waiting at least one day or more postoperatively for recovery of the animals. After fasting for 18 hours, 1% acetic acid was instilled into the colon to produce a hypersensitive condition. One hour after the instillation of acetic acid, a balloon was inserted into the colon, fixed, and colonic distension stimulus was loaded for 10 minutes by inflating the balloon. The colonic distension stimulus was loaded two times before and after administration of compound A, and the observed contraction number of the abdominal oblique muscle was counted. The result was expressed as inhibition percent. Determination of the abdominal muscle contraction was conducted with the naked eye and waveform of force transducer. Compound A was suspended in a 0.5% methylcellulose, and administered orally with a volume of 4 mL/kg 30 minutes before the second colonic distension stimulus (0.3, 3 and 30 mg/kg).

[1] = tested on: restraint stress-induced defecation; assay: Restraint stress-induced defecation test; assay type: in vivo; conditions: male Wistar rats
Experimental: For the experiment, 10 week-old male Wistar rats (SLC) were used. Compound A (0.3, 3, 10 and 30 mg/kg) or a vehicle (control group, 0.5% methylcellulose) was administered orally with a dose of 4 ml/kg, and after 15 minutes, a restraint stress was loaded. Fecal pellets were retrieved 2 hours after the beginning of the restraint stress loading, and the number of feces was counted. In addition, as for normal group, rats were left in their individual cages without any after administration of vehicle, and the number of feces for 2 hours was counted. Experiment was carried out according to Test Example 2, wherein melatonin (10 and 30 mg/kg) instead of compound A was administered orally.

normal defecation = assay: Normal defecation test; assay type: in vivo; conditions: male Wistar rats, oral 30 mg/kg; FIG. 3
Experimental: Further, a study on normal defecation was also conducted. Until the day before the experiment, two rats were kept in a cage and accustomed to the measuring condition. On the day of experiment, compound A or vehicle (control group, 0.5% methylcellulose) was administered orally with a dose of 4 ml/kg, and after 15 minutes, the measurement of defecation was commenced. The number of feces was counted two hours after the initiation of measurement, and the result was expressed by the number of feces per two rats.

[2] = tested on: melatonin receptor MT1/MT2; conditions: disclosed in U.S. Pat. No. 6,034,239; cited from earlier work
[3] = tested on: partial restraint stress-induced defecation; conditions: experimental model for irritable bowel syndrome; cited from earlier work
[4] = tested on: abdominal symptoms of irritable bowel syndrome; conditions: female patients suffering from irritable bowel syndrome; cited from earlier work

SMILES	inhibition of viscerosensory response (contraction number of abdominal oblique muscle, inhibition percent) (viscerosensory response)	inhibition of restraint stress-induced defecation (number of feces for 2 hours) ([1]; oral 30 mg/kg, 15 minutes before restraint stress, FIG. 2)	inhibition of normal defecation (number of feces per two rats, 2 hours) (normal defecation)	melatonin receptor MT1/MT2 agonistic action [2]	inhibition of restraint stress-induced defecation (number of feces for 2 hours) ([1]; oral 10 and 30 mg/kg, FIG. 4)	inhibitory action on partial restraint stress-induced defecation [3]	improvement of abdominal symptoms (abdominal pain, abdominal bloating, sense of urgency for defecation) [4]
CCC(=O)NCC[C@@H]1CCc2ccc3c(c21)CCO3 [compound A, (S)—N-[2-(1,6,7,8-tetrahydro-2H-indeno[5,4-b]furan-8-yl)ethyl]propionamide]	dose-dependent significant inhibition action	inhibited significantly	not inhibited	has a melatonin receptor MT1/MT2 agonistic action			
COc1ccc2[nH]cc(CCNC(C)=O)c2c1 [melatonin]					did not inhibit	shows an inhibitory action	improves significantly
